Results on 27 compounds are retold here after patent publication EP0490549B1, “Stabilisation of pharmaceutical compositions comprising calcitonin” (CIBA-GEIGY AG, priority 1990, dated 1995).

Data set [1] is described as follows: Stability of aqueous hCT solutions against fibrillation or precipitation (solution remains clear on storage). The data set is classed as physicochemical. The following applies: 5 mg/ml hCT; acetic acid 0.0001%, 0.001%, 0.01%, 0.1% and 1.0%; after 8 months.
Data set [2] can be described thus: Extrapolated time of fibrillation (ln/ln plot of fibrillation time against hCT concentration). Conditions: at 4°C; solutions with 5-9 mg/ml hCT in 0.001% acetic acid; from measurements up to 100 mg/ml hCT using the ln/ln plot.
The nature of data set [3]: Stability of aqueous hCT solutions against fibrillation or precipitation (solution remains clear on storage). The following applies: for ability of an acid to produce a stable solution of hCT (solution remains clear): storing for 24 hours at 25°C; for solution is stable for: Example 1 repeated (5 mg/ml hCT) with acetic acid replaced by the named acid. Here is the method:
The ability of an acid to produce a stable solution can be readily determined by making up a solution and storing it for 24 hours at 25°C.
Example 1 is repeated except that the solutions also contain 0.5% hydroxypropylmethylcellulose.

Where [4] appears, read: additive mixed with the hCT solution after preparation.

Entries after “also recorded” stand apart in the source; their conditions may differ. Like-named read-outs stand apart in the source and are kept apart here.

In the case of `CC[C@H](C)[C@H](NC(=O)[C@H](C)NC(=O)[C@@H](NC(=O)[C@H](CCC(N)=O)NC(=O)[C@@H]1CCCN1C(=O)[C@H](Cc1ccccc1)NC(=O)[C@@H](NC(=O)[C@H](Cc1c[nH]cn1)NC(=O)[C@H](Cc1ccccc1)NC(=O)[C@H](CCCCN)NC(=O)[C@H](CC(N)=O)NC(=O)[C@H](Cc1ccccc1)NC(=O)[C@H](CC(=O)O)NC(=O)[C@H](CCC(N)=O)NC(=O)[C@@H](NC(=O)[C@H](Cc1ccc(O)cc1)NC(=O)[C@@H](NC(=O)CNC(=O)[C@H](CC(C)C)NC(=O)[C@H](CCSC)NC(=O)[C@@H]1CSSC[C@H](N)C(=O)NCC(=O)N[C@@H](CC(N)=O)C(=O)N[C@@H](CC(C)C)C(=O)N[C@@H](CO)C(=O)N[C@@H]([C@@H](C)O)C(=O)N1)[C@@H](C)O)[C@@H](C)O)[C@@H](C)O)[C@@H](C)O)C(=O)NCC(=O)N[C@H](C(=O)NCC(=O)N[C@@H](C)C(=O)N1CCC[C@H]1C(N)=O)C(C)C` [hCT], the stability of solution result in data set [1] was “stable and perfectly clear”. Further, in data set [2], the stability predicted entry is on record as “more than 5 years”.
With `[H]/N=C(\N/C(=N/[H])NCCCCCCNC(=N)NC(=N)Nc1ccc(Cl)cc1)Nc1ccc(Cl)cc1` [chlorhexidine diacetate], the “effect of additive on the stability of the hCT solution” value (“effect of additive” below) in data set [3] is “do not diminish the stability”.
With sulphuric acid, the “ability of an acid to produce a stable solution of hCT (solution remains clear)” value (“ability of an acid … (solution remains clear)” below) in data set [3] is recorded as “do not form stable solutions”.
As for `OC[C@H]1O[C@@H](O[C@H]2[C@H](O)[C@@H](O)C(O)O[C@@H]2CO)[C@H](O)[C@@H](O)[C@H]1O` (stereo partly shown) [lactose], the “effect of additive” value in data set [3] is on record as “do not diminish the stability”.
As for `O=C(O)[C@H](O)[C@@H](O)[C@H](O)[C@H](O)CO` [gluconic acid], the “ability of an acid … (solution remains clear)” value in data set [3] is “do not form stable solutions”.
In the case of `O=C(O)CCCCC(=O)O` [adipic acid], in data set [3], the “solution is stable for” value is “over 4 days” and the “ability of an acid … (solution remains clear)” value is reported as “form stable solutions”.
With `O=C(O)CN(CCN(CC(=O)O)CC(=O)O)CC(=O)O` [ethylene - diamine tetraacetic acid], the “ability of an acid … (solution remains clear)” value in data set [3] is “form stable solutions”.
Same read-out and setting: as for `N[C@H](CCC(=O)O)C(=O)O` [D-glutamic acid], the entry is “do not form stable solutions”.
In the case of benzalkonium chloride, the “effect of additive” value in data set [3] (setting [4]) is “do not diminish the stability”.
Regarding `O=C(O)/C=C\C(=O)O` [maleic acid], in data set [3], the “ability of an acid … (solution remains clear)” value is reported as “do not form stable solutions”.
Consider `O=C(O)CC(=O)O` [malonic acid], for which, in data set [3], the “solution is stable for” value was “over 4 days” and the “ability of an acid … (solution remains clear)” value is recorded as “form stable solutions”.
The like results for `O=C1O[C@H]([C@@H](O)CO)C(O)=C1O` [ascorbic acid] were, in that order, “over 4 days” and “form stable solutions”.
Regarding `N[C@@H](CC(=O)O)C(=O)O` [aspartic acid], the “ability of an acid … (solution remains clear)” value in data set [3] is “do not form stable solutions”.
As to `O=C(O)CCCC(=O)O` [glutaric acid], in data set [3], the “solution is stable for” value is “over 4 days” and the “ability of an acid … (solution remains clear)” value is recorded as “form stable solutions”.
As to `Cl` [hydrochloric acid], in data set [3], the “solution is stable for” value is given as “over 4 days” and the “ability of an acid … (solution remains clear)” value was “form stable solutions”.
Consider `Oc1ccccc1` [phenol], for which the “ability of an acid … (solution remains clear)” value in data set [3] is “form stable solutions”.
`O=CO` [formic acid]: in data set [3], the “solution is stable for” value is “over 4 days” and the “ability of an acid … (solution remains clear)” value was “form stable solutions”.
On to `N[C@@H](CCC(=O)O)C(=O)O` [L-glutamic acid], for which, in data set [3], the “solution is stable for” value is recorded as “over 4 days”.
As for `CC(C)(C)CC(C)(C)c1ccc(OCCOCC[N+](C)(C)Cc2ccccc2)cc1` [benzethonium chloride], the “effect of additive” value in data set [3] (setting [4]) is recorded as “do not diminish the stability; also recorded: improve the stability”.
On to `OC[C@@H](O)[C@@H](O)[C@H](O)[C@H](O)CO` [mannitol], for which the “effect of additive” value in data set [3] is reported as “do not diminish the stability”.
Regarding `O=C(O)C(O)C(O)C(=O)O` [L-α-tartaric acid], in data set [3], the “solution is stable for” value is “over 4 days” and the “ability of an acid … (solution remains clear)” value is recorded as “form stable solutions”.
`OC[C@H]1O[C@@](CO)(O[C@H]2O[C@H](CO)[C@@H](O)[C@H](O)[C@H]2O)[C@@H](O)[C@@H]1O` [sucrose]: the “effect of additive” value in data set [3] was “do not diminish the stability”.
Consider `O=C(O)CC(O)(CC(=O)O)C(=O)O` [citric acid], for which, in data set [3], the “solution is stable for” value is given as “over 4 days” and the “ability of an acid … (solution remains clear)” value is recorded as “form stable solutions”.
`OC[C@H]1O[C@H](O[C@H]2O[C@H](CO)[C@@H](O)[C@H](O)[C@H]2O)[C@H](O)[C@@H](O)[C@@H]1O` [trehalose]: the “effect of additive” value in data set [3] is listed as “do not diminish the stability”.
Same read-out and setting: as for `CCO` [ethanol], the entry is “do not diminish the stability”.
With `O=C(O)CCC(=O)O` [succinic acid], the “solution is stable for” value in data set [3] is “over 4 days”.
Regarding `O=C(O)C(O)C(O)C(=O)O` (racemic) [DL-tartaric acid], in data set [3], the “solution is stable for” value was “over 4 days” and the “ability of an acid … (solution remains clear)” value was “form stable solutions”.
